Results reported in patent publication US10912767B2, “Anthracycline prodrugs and methods of making and using the same” (THE REGENTS OF THE UNIVERSITY OF COLORADO, priority 2015, dated 2021).

Assays:
[1] = Quantum yield of photocleavage, He-Cd laser 325 nm, HPLC; assay type: physicochemical; conditions: 325 nm
Description: Initially, measurement of the quantum yield of photodoxazolidine R═H was done in a fully-absorbing solution of photoactive drug in a solution of 90% dimethylacetamide (DMA), 10% water in a 1×1 cm quartz cuvette equipped with a small magnetic stir bar. A stock of photodoxazolidine in DMA was diluted in 9:1 DMA:H2O to a final concentration of 373 μM in a final volume of 3.380 mL. […] The cuvette was placed into the path of an Omnichrome He-Cd laser (single-window power: 10.75 mW at 325 nm using a Scientech laser power meter). The solution was mixed by the stir bar, which was agitated with a magnetic stir plate placed vertically next to the cuvette. Aliquots of 20 μL were removed at times between 0 and 62 min of irradiation and those aliquots were analyzed by HPLC (method 2) for the ratio of dox to photodoxazolidine. The quantum yield was calculated from the ratio of molecules of doxorubicin (dox) formed to photons absorbed.
To allow for better comparison between the quantum yield of photocleavage of photodoxazolidine with the quantum yield for azido-PEG-photodoxazolidine, the measurement was retaken with 50% acetonitrile in water as a solvent. […] Photodoxazolidine (in DMF) was diluted with 30 mL of 50% acetonitrile to a final concentration of 104 μM. The solution was confirmed to be fully absorbing by monitoring the laser power exiting the cell throughout the course of the experiment, which never deviated from 0 mW. As above, the contents of the cell were mixed with a small magnetic stir bar. Aliquots of 50 μL were removed at various times and analyzed as described above. The calculated quantum yield in this solvent system was identical to that measured from the […] system used above.
Concentration of azido-PEG-photodoxazolidine was determined via absorbance (λ=480 nm, ε=11500 M^−1 cm^−1). A sample ([…]) was dissolved in 1 mL of ACN and transferred to a cuvette. A 12.4 mW Omnichrome HeCd was used to irradiate the solution for 30 min at 325 nm. Aliquots of 10 μL were collected at different times and analyzed by HPLC to determine the % Dox in relation to that of azido-PEG-photodoxazolidine. In calculating quantum yield: power (without cuvette)=12.4 mW, (with cuvette)=10.7 mW, incident light=11.55 mW; energy=0.462 J, 7.55×1017 photons; t=40 sec when % Dox=9.2. Experiments were performed in triplicate.
Azido-PEG-photodoxazolidine was irradiated with a 12.4 mW monochromatic laser at 325 nm for 30 min. Aliquots were collected throughout to determine the amount of azido-PEG-photodoxazolidine in relation to released doxorubicin, which was quantified by HPLC. […] The average of triplicate quantum yield experiments was 0.025. This value is in the low end of the quantum yield range, yet is beneficial because it signifies that UV must be applied for longer durations prior to release of the cytotoxic agent. This makes administration of this photo-activated prodrug safer, and its synthesis more practical.

[2] = test system: MDA-MB-231 breast carcinoma cells; assay: Tumor cell uptake by flow cytometry; assay type: cell-based, human; conditions: 500 nM, 30 min to 4 h, compared against doxorubicin
Description: Uptake of the drugs by the cells was measured by flow cytometry. The cells were incubated with 500 nM photodoxazolidine R═H, azido-PEG-photodoxazolidine, or doxorubicin dissolved in 1:1 PBS:serum-free media for between 30 min and 4 h, after which the drug was removed and the cells washed with cold PBS. Cells were trypsinized to a single-cell suspension, rinsed again in cold PBS, and stored on ice for analysis by flow cytometry, monitoring the presence of the anthraquinone fluorophore (channel FL2). Cell populations were gated for intact cells in the side-scatter/forward-scatter plot and 10,000 gated events were scored for each timepoint. The mean fluorescence of the population was compared to the mean fluorescence of 10,000 gated events for an untreated population and the fold increase over background was plotted versus time of drug incubation.
Using MDA-MB-231 breast carcinoma cells, the cellular uptake of photodoxazolidine and azido-PEG-photodoxazolidine was analyzed by flow cytometry and compared against the uptake of doxorubicin.

COc1cc(COC(=O)N2COC3C(C)OC(OC4CC(O)(C(=O)CO)Cc5c(O)c6c(c(O)c54)C(=O)c4c(OC)cccc4C6=O)CC32)c([N+](=O)[O-])cc1OC (stereo not drawn) [Photodoxazolidine]
quantum yield ([1]; 50% acetonitrile in water, vs first solvent system): identical
quantum yield ([1]; 90% dimethylacetamide, 10% water): 0.002
cellular uptake (cellular fluorescence) [2]: rapid increase in cellular fluorescence
